Assay results from patent US8791132B2, “Compounds and methods for treatment of hypertension” (Medivation Technologies, Inc., priority 2011, dated 2014).

Tests used:
SH-SY5Y cells [1] = test: Cell death (LDH release) in hydrogen peroxide-treated SH-SY5Y cells; assay type: cell-based; settings: LDH release normalized to vehicle (=100); hydrogen peroxide 300 μM, 24 h; compounds at 10 nM
Description: (§1) SH-SY5Y cells cultured in DMEM/F12 media supplemented with 10% FBS were seeded in 96-well microplates at 150,000 cells/cm^2. After 24 h, cells were depleted from FBS and kept in culture for 24 h before the experiment. Cells were then treated with 4-Br-A23187 (2 μM), hydrogen peroxide (300 μM) or the mitochondrial toxin rotenone (25 μM) in the presence of vehicle or Compound of the Invention for 24 h. Cell death was determined by measurements of LDH release according to the Cytotoxicity Detection KitPlus (Roche, Mannheim, Germany). Cell viability was determined by measuring the capacity of cells to metabolize MTS tetrazolium (MTS) according to the Cytotoxicity Detection KitPlus (Roche, Mannheim, Germany) and MTS reduction is assessed by the CellTiter 96® AQueous One Solution Cell Proliferation assay (Promega Corporation, Madison, Wis., USA). Compounds were screened at 10 nM, using DMSO as vehicle. Assay results for the experiments with hydrogen peroxide are presented as the LDH release (cell death) of untreated cells (control), hydrogen peroxide-treated cells (vehicle), and co-incubation of hydrogen peroxide with Compounds of the Invention treated cells normalized to the vehicle (FIG. 17A). This assay assesses the ability of the test compounds to protect against cell death that is mediated by mitochondrial dysfunction. In the assay, the calcium ionophore 4-Br-A23187 is used to challenge the cells, causing calcium levels to rise in mitochondria, which leads to depolarization and cell death. Test compounds are assessed for their ability to prevent cell death in response to challenge with 4-Br-A23187.

[2] = system: dexmedetomidine induced dogs; test: Dexmedetomidine (DEX) induced beagle dog model of hypertension; assay type: in vivo
Source text: (§2) Four adult beagle dogs of both sex and weighted around 10 kg were chosen for the acute studies after a preliminary qualitative electrocardiogram/ECG, clinical pathology and physical examination. Upon arrival at the laboratory, the dogs were weighed and acclimated for a period of one week. Lab Diet certified canine diet #5007, PMI Nutrition International Inc was made available ad libitum to all dogs except during fasting periods. The dogs were surgically implanted with a pressure transducer equipped telemetry transmitter under sodium pentobarbitone anesthesia. The transmitter assembly was secured internally, the fluid-filled catheter was placed into an appropriate artery.
(§3) In the acute studies, the test compounds 3b and 5b at different doses (dosing sequences provided in Table B7 for compound 3b and Table B8 for compound 5b) was administered by oral gavage, 30 minutes prior to intravenous dexmedetomidine (5 μg/kg) challenge. Dexmedetomidine administration was enabled by prior placement of a peripheral intravenous line. The same four dogs were received all four treatments in the order noted in the table below, with at least a 3-day washout period between treatments.
(§4) For the chronic study mode (see Table B9), the test compound 3b at 3 doses was administered by oral gavage once on day 1 and then twice/day on days 2 to 14, and finally once on day 15. The dexmedetomidine was administered on day-4 to check its effectiveness in inducing blood pressure, and once following the morning dose of compound 3b or vehicle on days 2, 7 and 14. Blood pressure and heart rate data were collected 1 h prior & 4 h post-morning dose on days 1, 2, 7, 14 and 15 to allow the appropriate data comparisons. Blood aliquots were saved at 4 h post-morning dose for exposure determination.
In both acute and chronic studies, dogs were weighed before dosing. Cardiovascular evaluations at each dose of test compound were collected with animals gently restrained in a sling. […] The dogs were monitored continuously for 3-4 hours subsequent to test compound administration and summarized in 5-minute bins. […]

healthy dogs = test: Blood pressure in healthy beagle dogs (telemetry); assay type: in vivo, dog
Source text: as §2, §3
In another acute study with compound 41a, the test agent was administered a dose of 6 mg/kg by oral gavage to 4 healthy dogs; and the blood pressure monitored for a period of 4 hours.
as §4
In both acute and chronic studies, dogs were weighed before dosing. Cardiovascular evaluations at each dose of test compound were collected with animals gently restrained in a sling. Dogs were placed in the sling at least 1 hour prior to dose administration, and after at least 30 minutes of stable baseline data collection. The dogs were monitored continuously for 3-4 hours subsequent to test compound administration and summarized in 5-minute bins. The systolic blood pressure was collected.

[3] = target: T1, human recombinant adrenergic α1D receptor (Homo sapiens, UniProt P25100); test: Radioligand binding, adrenergic α1D ([3H]Prazosin)
T1 construct: expressed in transfected cells; host or cells: HEK-293
T1 sequence (P25100 1-572): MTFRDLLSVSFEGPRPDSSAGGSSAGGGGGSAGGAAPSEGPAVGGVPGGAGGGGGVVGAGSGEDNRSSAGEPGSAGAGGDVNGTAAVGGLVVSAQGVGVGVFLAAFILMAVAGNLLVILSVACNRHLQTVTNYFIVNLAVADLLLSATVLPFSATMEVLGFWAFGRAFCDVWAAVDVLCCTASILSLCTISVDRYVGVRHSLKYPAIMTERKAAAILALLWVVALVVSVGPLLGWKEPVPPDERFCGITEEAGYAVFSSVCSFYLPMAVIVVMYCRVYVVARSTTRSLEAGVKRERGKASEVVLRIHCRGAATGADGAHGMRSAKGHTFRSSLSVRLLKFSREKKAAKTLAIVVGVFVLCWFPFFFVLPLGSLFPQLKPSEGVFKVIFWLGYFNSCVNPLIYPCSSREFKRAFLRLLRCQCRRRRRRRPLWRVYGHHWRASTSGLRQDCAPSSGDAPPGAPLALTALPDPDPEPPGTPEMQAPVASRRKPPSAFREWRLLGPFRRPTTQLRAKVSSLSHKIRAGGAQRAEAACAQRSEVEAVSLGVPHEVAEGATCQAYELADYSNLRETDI

SH-SY5Y cells [4] = test: Cell viability (MTS reduction) in 4-Br-A23187-treated SH-SY5Y cells; assay type: cell-based; settings: MTS reduction capacity; 4-Br-A23187 2 μM, 24 h; compounds at 10 nM
Description: as §1, with “After” for “SH-SY5Y cells cultured in DMEM/F12 media supplemented with 10% FBS were seeded in 96-well microplates at 150,000 cells/cm^2. After”

[5] = dexmedetomidine (5 μg/kg i.v.) induced dogs, acute studies, oral gavage 30 min before challenge

Row | SMILES | LDH release (cell death), relative to vehicle (SH-SY5Y cells [1]) | systolic blood pressure [2, 5] | systolic blood pressure ([2]; dexmedetomidine induced dogs, chronic study, oral b.i.d., day 2, 7 and 14) | systolic blood pressure (healthy dogs; acute studies, oral gavage) | systolic blood pressure (healthy dogs; chronic study, oral, day 1 and 15) | Ki [3] [nM] | Relative cell viability protection (SH-SY5Y cells [4]) | heart rate (healthy dogs; 6 mg/kg oral gavage)
1 | Cc1ccc2c(c1)c1c(n2CC(O)c2ccncc2)CCN(C)C1 (single isomer, unassigned) [3b] | 86.70 | dose-dependently reduced systolic blood pressure | dose dependently reduced systolic blood pressure | dose-dependently reduced systolic blood pressure | dose dependently reduced systolic blood pressure | 258 | 0.3673 | –
2 | CN1CCc2c(c3cc(Cl)ccc3n2CC(O)c2ccncc2)C1 (single isomer, unassigned) [4a] | 81.64 | – | – | – | – | – | – | –
3 | Cc1ccc2c(c1)c1c(n2CC(C)(O)c2cccnc2)CCN(C)C1 (single isomer, unassigned) [5b, 1-(1,2,3,4-tetrahydro-2,8-dimethylpyrido[4,3-b]indol-5-yl)-2-(pyridin-3-yl)propan-2-ol] | 73.73 | dose-dependently reduced systolic blood pressure | – | dose-dependently reduced systolic blood pressure | – | – | 0.3748 | –
4 | Cc1ccc2c(c1)c1c(n2CC(O)c2ccncc2)CCNC1 (single isomer, unassigned) [39a, 2-(8-methyl-1,2,3,4-tetrahydro-pyrido[4,3-b]indol-5-yl)-1-pyridin-4-yl-ethanol] | 82.94 | – | – | – | – | – | – | –
5 | CN1CCc2c(n(CC(O)c3ccncc3)c3ccc(Cl)cc23)C1 (single isomer, unassigned) [41a] | – | – | – | robust and long lasting reduction in systolic blood pressure | – | – | – | slight decrease or neutral effect
